Laboratory results published in ChEMBL document CHEMBL1151240, “A new dimension to the biosynthetic products isolated from the sponge Negombata magnifica” (2004).
Calls of active or inactive are those of the source. The calls are words filed in the database; no cut-off is given here.

Tested on: A10
Test: Disruption of actin cytoskeleton in rat A10 cells upto 10 ug/ml by rhodamine-phalloidin assay
Format: functional

`C/C1=C/C(=O)O[C@@H]2C[C@@H](CC[C@H](C)/C=C\CC1)O[C@@](O)([C@@H]1CSC(=O)N1)C2` [LATRUNCULIN B] showed an Activity of 0.5 µg/mL.
Work on `C/C1=C/C(=O)O[C@@H]2C[C@@H](CC[C@H](C)/C=C\C=C\CC1)O[C@@](O)([C@@H]1CSC(=O)N1)C2` [LATRUNCULIN A] yielded an Activity of 0.5 µg/mL.
For `C/C(=C/C(=O)O)CC/C=C\[C@@H](C)CC[C@@H]1CC=CC(=O)O1`, the Activity was “inactive”.
`C/C1=C/C(=O)O[C@@H]2C[C@@H](CC[C@H](C)/C=C\CC1)O[C@@](O)([C@H]1CSC(=O)N1)C2` [16-EPI-LATRUNCULIN B] was tested, and the Activity was 5 µg/mL.
In the case of `CO[C@]1([C@@H]2CSC(=O)N2)C[C@H]2C[C@@H](CC[C@H](C)/C=C\CC/C(C)=C\C(=O)O2)O1`, the Activity is reported as “inactive”.
